Data taken from ChEMBL document CHEMBL5126554, “Occurrence, synthesis and biological activity of 2-(2-phenyethyl)chromones” (Eur J Med Chem, 2022).

Key:
[1] = tested on: Staphylococcus aureus; assay: Antibacterial activity against methicillin-resistant Staphylococcus aureus assessed as inhibition of bacterial growth incubated for 24 hrs by broth microdilution assay; type: functional, organism-based
[2] = tested on: RAW264.7; assay: Inhibition of NO production in LPS stimulated mouse RAW264.7 cells by Griess reagent based analysis; type: functional, cell-based
[3] = Antioxidant activity assessed as inhibition of DPPH radical scavenging activity by measuring reduction in absorbance at 100 uM by spectrophotometric analysis relative to control; type: functional
[4] = tested on: HeLa; assay: Cytotoxicity against human HeLa cells; type: functional, cell-based
[5] = tested on: A549; assay: Cytotoxicity against human A549 cells; type: functional, cell-based
[6] = tested on: SGC-7901; assay: Cytotoxicity against human SGC-7901 cells; type: functional, cell-based
[7] = tested on: K562; assay: Cytotoxicity against human K562 cells; type: functional, cell-based
[8] = target: cGMP-specific 3',5'-cyclic phosphodiesterase (Homo sapiens, UniProt O76074); assay: Inhibition of human recombinant PDE5A1 using FAM-cGMP as substrate incubated for 60 mins by fluorescence polarization method
[9] = target: T1, Acetylcholinesterase (Homo sapiens, UniProt P22303); settings: dose 50.0 mg/ml, time 1.0 hrs
T1 sequence (P22303 whole entry): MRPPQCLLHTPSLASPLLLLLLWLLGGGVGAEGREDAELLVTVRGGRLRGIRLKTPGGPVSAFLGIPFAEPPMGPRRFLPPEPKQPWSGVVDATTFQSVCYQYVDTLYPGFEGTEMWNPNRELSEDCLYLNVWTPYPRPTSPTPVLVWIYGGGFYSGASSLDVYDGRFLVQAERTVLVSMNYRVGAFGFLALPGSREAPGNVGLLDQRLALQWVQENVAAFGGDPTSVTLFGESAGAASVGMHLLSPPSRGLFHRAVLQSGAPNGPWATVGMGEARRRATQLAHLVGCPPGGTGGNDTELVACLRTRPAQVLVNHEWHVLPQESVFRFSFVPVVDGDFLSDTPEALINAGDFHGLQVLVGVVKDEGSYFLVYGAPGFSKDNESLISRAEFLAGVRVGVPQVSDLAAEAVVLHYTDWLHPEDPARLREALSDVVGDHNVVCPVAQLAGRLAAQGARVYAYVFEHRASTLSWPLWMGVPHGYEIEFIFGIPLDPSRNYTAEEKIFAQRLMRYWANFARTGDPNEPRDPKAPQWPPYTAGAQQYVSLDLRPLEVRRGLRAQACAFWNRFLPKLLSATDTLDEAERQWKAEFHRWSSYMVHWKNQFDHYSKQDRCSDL

[10] = target: T1, Acetylcholinesterase; assay: Inhibition of AChE (unknown origin) by spectrophotometric based Ellman's method
[11] = tested on: A549; assay: Cytotoxicity against human A549 cells by MTT assay; type: functional, cell-based
[12] = target: Mushroom tyrosinase (Agaricus bisporus, UniProt O42713+Q00024+C7FF04+C7FF05); assay: Inhibition of mushroom tyrosinase activity using L-tyrosine as substrate preincubated for 5 mins followed by substrate addition and measured after 20 mins by microplate reader analysis
[13] = target: Nuclear factor NF-kappa-B complex (Homo sapiens) (UniProt Q00653+P19838+Q04206); assay: Inhibition of LPS induced NF-kappaB activation (unknown origin) assessed as relative luciferase activity; type: protein-complex assay
Chain of Nuclear factor NF-kappa-B complex (Homo sapiens) (P19838 whole entry, looked up): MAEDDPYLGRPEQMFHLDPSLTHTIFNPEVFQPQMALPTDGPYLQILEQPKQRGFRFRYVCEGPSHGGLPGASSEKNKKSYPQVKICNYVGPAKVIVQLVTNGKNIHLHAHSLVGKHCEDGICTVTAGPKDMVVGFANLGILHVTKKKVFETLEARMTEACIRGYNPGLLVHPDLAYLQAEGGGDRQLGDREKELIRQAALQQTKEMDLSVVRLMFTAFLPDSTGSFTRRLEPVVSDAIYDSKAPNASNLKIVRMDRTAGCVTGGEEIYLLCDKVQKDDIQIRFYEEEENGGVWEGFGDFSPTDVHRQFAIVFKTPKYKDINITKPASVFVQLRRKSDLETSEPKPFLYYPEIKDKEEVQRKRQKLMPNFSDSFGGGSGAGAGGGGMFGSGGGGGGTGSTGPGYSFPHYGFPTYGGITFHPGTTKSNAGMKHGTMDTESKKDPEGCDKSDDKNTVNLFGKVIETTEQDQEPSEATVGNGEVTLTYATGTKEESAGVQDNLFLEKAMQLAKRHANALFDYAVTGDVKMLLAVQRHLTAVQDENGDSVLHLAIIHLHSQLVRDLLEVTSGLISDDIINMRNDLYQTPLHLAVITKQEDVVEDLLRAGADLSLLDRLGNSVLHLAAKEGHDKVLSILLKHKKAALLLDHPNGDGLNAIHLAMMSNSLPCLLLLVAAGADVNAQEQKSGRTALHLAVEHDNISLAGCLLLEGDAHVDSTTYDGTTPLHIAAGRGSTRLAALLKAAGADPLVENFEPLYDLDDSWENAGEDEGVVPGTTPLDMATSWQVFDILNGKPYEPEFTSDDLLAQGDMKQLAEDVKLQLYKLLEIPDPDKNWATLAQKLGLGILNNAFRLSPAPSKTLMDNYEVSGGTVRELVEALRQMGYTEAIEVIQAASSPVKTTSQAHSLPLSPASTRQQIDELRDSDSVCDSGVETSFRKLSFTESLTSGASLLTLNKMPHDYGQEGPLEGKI
Chain of Nuclear factor NF-kappa-B complex (Homo sapiens) (Q00653 whole entry, looked up): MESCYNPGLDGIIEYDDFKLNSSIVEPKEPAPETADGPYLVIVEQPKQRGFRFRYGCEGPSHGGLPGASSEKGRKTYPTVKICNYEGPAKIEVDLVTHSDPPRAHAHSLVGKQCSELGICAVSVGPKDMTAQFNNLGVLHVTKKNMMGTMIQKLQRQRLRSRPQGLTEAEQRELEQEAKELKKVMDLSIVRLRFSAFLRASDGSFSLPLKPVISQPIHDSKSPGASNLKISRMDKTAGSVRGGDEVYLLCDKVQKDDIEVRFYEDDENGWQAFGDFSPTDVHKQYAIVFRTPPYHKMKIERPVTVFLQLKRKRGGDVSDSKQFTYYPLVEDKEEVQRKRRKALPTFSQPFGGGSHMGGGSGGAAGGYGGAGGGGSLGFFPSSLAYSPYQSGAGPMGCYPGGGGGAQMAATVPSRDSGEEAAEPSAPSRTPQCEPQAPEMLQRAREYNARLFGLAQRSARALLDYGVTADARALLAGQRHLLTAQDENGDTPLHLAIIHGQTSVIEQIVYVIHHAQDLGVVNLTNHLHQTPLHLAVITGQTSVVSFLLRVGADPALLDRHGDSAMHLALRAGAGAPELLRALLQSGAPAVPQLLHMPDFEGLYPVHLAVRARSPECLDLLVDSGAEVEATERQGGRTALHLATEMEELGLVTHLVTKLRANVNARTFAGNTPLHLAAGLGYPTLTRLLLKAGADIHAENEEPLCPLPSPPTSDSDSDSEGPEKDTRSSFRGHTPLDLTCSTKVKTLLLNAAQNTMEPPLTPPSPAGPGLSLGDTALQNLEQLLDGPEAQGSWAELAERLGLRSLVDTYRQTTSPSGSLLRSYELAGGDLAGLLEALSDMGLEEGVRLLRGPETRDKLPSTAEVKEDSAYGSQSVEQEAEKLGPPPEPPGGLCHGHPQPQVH
Chain of Nuclear factor NF-kappa-B complex (Homo sapiens) (Q04206 whole entry, looked up): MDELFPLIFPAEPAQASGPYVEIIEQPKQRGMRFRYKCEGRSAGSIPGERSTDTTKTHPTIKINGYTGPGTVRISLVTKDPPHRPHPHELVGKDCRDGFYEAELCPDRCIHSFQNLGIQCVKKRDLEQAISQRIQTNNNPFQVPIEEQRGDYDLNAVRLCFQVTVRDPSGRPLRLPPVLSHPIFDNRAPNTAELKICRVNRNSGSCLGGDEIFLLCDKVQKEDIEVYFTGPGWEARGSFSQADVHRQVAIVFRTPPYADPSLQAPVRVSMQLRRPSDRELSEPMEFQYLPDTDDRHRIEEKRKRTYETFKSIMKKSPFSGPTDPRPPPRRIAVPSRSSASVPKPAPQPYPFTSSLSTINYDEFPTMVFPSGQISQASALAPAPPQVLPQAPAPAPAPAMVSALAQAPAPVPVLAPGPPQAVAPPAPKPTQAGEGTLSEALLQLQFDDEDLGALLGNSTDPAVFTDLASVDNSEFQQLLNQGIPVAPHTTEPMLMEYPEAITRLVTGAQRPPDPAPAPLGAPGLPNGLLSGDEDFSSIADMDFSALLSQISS

[14] = target: cGMP-inhibited 3',5'-cyclic phosphodiesterase 3A (Homo sapiens, UniProt Q14432); assay: Inhibition of human recombinant PDE3A using FAM-cAMP as substrate incubated for 60 mins by fluorescence polarization method
Chain of cGMP-inhibited 3',5'-cyclic phosphodiesterase 3A (Q14432 whole entry): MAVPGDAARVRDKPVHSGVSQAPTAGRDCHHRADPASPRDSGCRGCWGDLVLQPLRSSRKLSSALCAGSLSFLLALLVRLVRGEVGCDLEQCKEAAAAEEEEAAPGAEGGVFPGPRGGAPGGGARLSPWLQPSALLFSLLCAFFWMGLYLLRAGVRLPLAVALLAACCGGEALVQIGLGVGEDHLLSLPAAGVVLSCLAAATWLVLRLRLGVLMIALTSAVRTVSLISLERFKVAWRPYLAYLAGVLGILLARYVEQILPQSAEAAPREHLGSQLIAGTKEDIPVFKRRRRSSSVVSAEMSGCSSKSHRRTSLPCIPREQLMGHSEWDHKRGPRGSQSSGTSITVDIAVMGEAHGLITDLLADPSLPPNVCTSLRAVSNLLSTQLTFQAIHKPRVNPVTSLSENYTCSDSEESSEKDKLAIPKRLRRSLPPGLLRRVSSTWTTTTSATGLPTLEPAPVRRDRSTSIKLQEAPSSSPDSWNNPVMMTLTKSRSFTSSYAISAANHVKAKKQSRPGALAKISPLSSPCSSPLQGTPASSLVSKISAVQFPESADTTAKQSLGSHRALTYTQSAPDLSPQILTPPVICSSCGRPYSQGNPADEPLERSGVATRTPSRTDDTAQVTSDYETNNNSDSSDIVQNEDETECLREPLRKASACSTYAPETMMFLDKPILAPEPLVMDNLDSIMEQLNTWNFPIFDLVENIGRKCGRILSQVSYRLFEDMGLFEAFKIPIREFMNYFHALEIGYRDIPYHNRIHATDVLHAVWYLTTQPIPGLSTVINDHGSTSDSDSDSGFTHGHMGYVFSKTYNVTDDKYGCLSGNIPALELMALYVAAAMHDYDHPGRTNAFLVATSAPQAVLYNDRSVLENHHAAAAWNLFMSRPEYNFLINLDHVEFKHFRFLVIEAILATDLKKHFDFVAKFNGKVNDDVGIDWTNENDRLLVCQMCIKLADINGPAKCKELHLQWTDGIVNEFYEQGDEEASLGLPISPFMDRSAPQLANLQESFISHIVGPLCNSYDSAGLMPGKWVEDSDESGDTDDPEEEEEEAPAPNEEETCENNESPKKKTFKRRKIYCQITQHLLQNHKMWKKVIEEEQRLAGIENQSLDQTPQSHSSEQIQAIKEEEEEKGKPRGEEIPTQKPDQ

[15] = tested on: Bel-7402; assay: Cytotoxicity against human Bel-7402 cells; type: functional, cell-based

Question: What does the source list for `O=c1cc(CCc2ccccc2)oc2c(O)ccc(O)c12`?
Answer: IC50 [1]: 220 µM; IC50 [2]: 1.6 µM

Question: Which inhibition [3] does the source give for `COc1cc(C[C@@H](O)c2cc(=O)c3c(O)cc(O)cc3o2)ccc1O` here?
Answer: Its inhibition is 56.1%.

Question: With `O=c1cc(CCc2ccc(O)cc2)oc2cc(OC3O[C@H](CO)[C@@H](O)[C@H](O)[C@H]3O)cc(O)c12` (stereo partly drawn) as the molecule, how does the inhibition [3] read?
Answer: The inhibition was 56.1%.

Question: For `COc1ccc(CCc2cc(=O)c3cc(OC)c(O)cc3o2)cc1`, which IC50 [1] is on record?
Answer: The IC50 was 220 µM.

Question: Which IC50 [4] does the source give for `O=c1cc(CCc2ccccc2)oc2c1[C@H]1c3c(ccc4oc(CCc5ccccc5)cc(=O)c34)O[C@H]([C@H]1O)[C@@H]2O` here?
Answer: The IC50 was 10.9 µM.

Question: What about the IC50 [5] of the same molecule?
Answer: The IC50 was 10.9 µM.

Question: And the IC50 [6]?
Answer: The IC50 was 10.9 µM.

Question: And the IC50 [7]?
Answer: Its IC50 is 10.9 µM.

Question: For `O=c1cc(CCc2ccccc2)oc2c1[C@H](O)[C@@H](O)[C@@H](O)[C@@H]2Oc1cc2oc(CCc3ccccc3)cc(=O)c2cc1O`, which IC50 [8] is on record?
Answer: Its IC50 is 4.2 µM.

Question: For `O=c1cc(CCc2ccc(O)c(O)c2)oc2cc(O)cc(O)c12`, which inhibition [3] is on record?
Answer: Its inhibition is 91.2%.

Question: With `COc1ccc(CCc2cc(=O)c3c(o2)[C@@H]2O[C@@H]2[C@@H]2O[C@H]32)cc1O` as the molecule, how does the inhibition [9] read?
Answer: Its inhibition is 17.5%.

Question: Which IC50 [10] does the source give for `COc1ccc(CCc2cc(=O)c3c(o2)[C@H]2O[C@H]2[C@@H](O)[C@H]3OC)cc1` here?
Answer: The IC50 was 156 µM.

Question: Which inhibition [9] does the source give for `COc1ccc(CCc2cc(=O)c3c(o2)[C@H]2O[C@H]2[C@@H](O)[C@@H]3O)cc1O` here?
Answer: The inhibition was 17.5%.

Question: For `C=C(C)[C@H]1CC[C@@]2(C)CCCC(C(=O)O[C@H]3c4oc(CCc5ccccc5)cc(=O)c4[C@@H](O)[C@H](O)[C@@H]3O)=C2C1`, which IC50 [11] is on record?
Answer: Its IC50 is 17.6 µM.

Question: Which IC50 [8] does the source give for `COc1ccc(CCc2cc(=O)c3c(o2)[C@@H](Oc2cc(O)cc4c(=O)cc(CCc5ccccc5)oc24)[C@H](O)[C@H](O)[C@H]3O)cc1` here?
Answer: Its IC50 is 7.9 µM.

Question: Which IC50 [12] does the source give for `COc1ccc(CCc2cc(=O)c3cc(O)c(OC)cc3o2)cc1O` here?
Answer: The IC50 was 89 µM.

Question: With `COc1ccc(CCc2cc(=O)c3c(O)c(O)ccc3o2)cc1O` as the molecule, how does the IC [13] read?
Answer: Its IC is 0.31 µM.

Question: With `O=C(CCc1ccccc1)O[C@@H]1c2oc(CCc3ccccc3)cc(=O)c2[C@H](O)[C@@H](O)[C@H]1O` as the molecule, how does the IC50 [14] read?
Answer: The IC50 was 42.6 µM.

Question: What about the IC50 [8] of the same molecule?
Answer: The IC50 was 15.1 µM.

Question: With `O=c1cc(CCc2ccccc2)oc2c1[C@@H]1c3c(ccc4oc(CCc5ccccc5)cc(=O)c34)O[C@@H]([C@@H]1O)[C@H]2O` as the molecule, how does the IC50 [4] read?
Answer: The IC50 was 10.9 µM.

Question: And the IC50 [5]?
Answer: The IC50 was 10.9 µM.

Question: And the IC50 [6]?
Answer: Its IC50 is 10.9 µM.

Question: And the IC50 [7]?
Answer: The IC50 was 10.9 µM.

Question: With `COc1ccc(CCc2cc(=O)c3cc(OC)c(OC)cc3o2)cc1` as the molecule, how does the IC [13] read?
Answer: Its IC is 0.31 µM.

Question: For `COc1ccc(CCc2cc(=O)c3cc(O)c(OC)cc3o2)cc1`, which IC50 [6] is on record?
Answer: Its IC50 is 5.76 µM.

Question: And the IC50 [7]?
Answer: The IC50 was 5.76 µM.

Question: And the IC50 [15]?
Answer: Its IC50 is 5.76 µM.

Question: For `COc1ccc(CCc2cc(=O)c3c(o2)[C@@H](O)[C@H](O)[C@H](O)[C@H]3OC)cc1`, which inhibition [9] is on record?
Answer: Its inhibition is 17.5%.

Question: Which IC50 [1] does the source give for `COc1ccc(CCc2cc(=O)c3c(O)ccc(OC)c3o2)cc1` here?
Answer: Its IC50 is 220 µM.

Question: For `COc1ccc(CCc2cc(=O)c3c(o2)[C@H]2O[C@H]2[C@@H](O)[C@H]3OC)cc1O`, which IC50 [10] is on record?
Answer: Its IC50 is 442 µM.

Question: Which IC50 [2] does the source give for `COc1ccc(CCc2cc(=O)c3c(o2)[C@H](Cl)[C@@H](O)[C@@H](O)[C@H]3O)cc1` here?
Answer: The IC50 was 1.6 µM.

Question: With `COc1ccc2c(=O)cc(CCc3ccccc3)oc2c1` as the molecule, how does the IC [13] read?
Answer: Its IC is 0.31 µM.

Question: For `C/C1=C\CC/C(C(=O)O[C@@H]2c3oc(CCc4ccccc4)cc(=O)c3[C@H](O)[C@@H](O)[C@H]2O)=C/CC(C)(C)/C=C/C1`, which IC50 [11] is on record?
Answer: Its IC50 is 17.6 µM.

Question: For `C=C(C)[C@H]1CC[C@@]2(C)CCC=C(C(=O)O[C@H]3c4oc(CCc5ccccc5)cc(=O)c4[C@@H](O)[C@H](O)[C@@H]3O)[C@H]2C1`, which IC50 [11] is on record?
Answer: The IC50 was 17.6 µM.

Question: Which IC50 [2] does the source give for `O=c1cc(CCc2ccccc2)oc2c1[C@H](O)[C@H](O)[C@H](O)[C@H]2Cl` here?
Answer: Its IC50 is 1.6 µM.

Question: With `COc1ccc(CCc2cc(=O)c3cc4c(cc3o2)O[C@H]2c3c(oc(CCc5ccccc5)cc3=O)[C@H](O)[C@@H](O4)[C@@H]2O)cc1` as the molecule, how does the IC50 [15] read?
Answer: The IC50 was 44.7 µM.

Question: Which inhibition [9] does the source give for `COc1ccc(CCc2cc(=O)c3c(o2)[C@H]2O[C@H]2[C@@H](O)[C@@H]3O)cc1` here?
Answer: The inhibition was 17.5%.

Question: With `O=c1cc(CCc2ccc(O)cc2)oc2cc(O)cc(O)c12` as the molecule, how does the inhibition [3] read?
Answer: Its inhibition is 56.1%.

Question: With `COc1ccc(CCc2cc(=O)c3c(o2)[C@H](O)[C@H]2Oc4cc5oc(CCc6ccc(OC)cc6)cc(=O)c5cc4O[C@@H]3[C@H]2O)cc1` as the molecule, how does the IC50 [15] read?
Answer: Its IC50 is 42.1 µM.

Question: For `COc1ccc(CCc2cc(=O)c3c(o2)[C@H](Cl)[C@H](O)[C@H](O)[C@@H]3O)cc1`, which IC50 [2] is on record?
Answer: Its IC50 is 1.6 µM.

Question: What does the source list for `COc1ccc(CCc2cc(=O)c3cc(O)c(O)cc3o2)cc1`?
Answer: IC50 [6]: 5.76 µM; IC50 [7]: 5.76 µM; IC50 [15]: 5.76 µM

Question: With `COc1ccc(CCc2cc(=O)c3c(o2)[C@@H](O)[C@H](O)[C@@H]2O[C@H]32)cc1` as the molecule, how does the IC50 [2] read?
Answer: Its IC50 is 1.6 µM.

Question: With `O=c1cc(CCc2ccccc2)oc2cc(O)c(O)cc12` as the molecule, how does the IC50 [6] read?
Answer: The IC50 was 5.76 µM.

Question: What about the IC50 [7] of the same molecule?
Answer: The IC50 was 5.76 µM.

Question: And the IC50 [15]?
Answer: Its IC50 is 5.76 µM.

Question: Which inhibition [3] does the source give for `CCCOC(=O)c1cc(O)c(O)c(O)c1` here?
Answer: Its inhibition is 97.4%.

Question: For `CO[C@@H]1c2c(oc(CCc3ccccc3)cc2=O)[C@H](O)[C@@H](O)[C@H]1O`, which inhibition [9] is on record?
Answer: The inhibition was 17.5%.

Question: For `COc1cc2oc(CCc3ccccc3)cc(=O)c2cc1O`, which IC [13] is on record?
Answer: The IC was 0.31 µM.

Question: For `O=c1cc(CCc2ccccc2)oc2c1[C@H](O)[C@@H](O)[C@H]1O[C@@H]21`, which inhibition [9] is on record?
Answer: Its inhibition is 17.5%.

Question: For `COc1ccc(CCc2cc(=O)c3cc(O)c(O[C@@H]4c5oc(CCc6ccccc6)cc(=O)c5[C@H](O)[C@@H](O)[C@H]4O)cc3o2)cc1`, which IC50 [8] is on record?
Answer: The IC50 was 4.3 µM.

Question: Which IC50 [12] does the source give for `COc1ccc(CCc2cc(=O)c3cc(O)cc(O)c3o2)cc1` here?
Answer: Its IC50 is 51.5 µM.

Question: For `C=C(CO[C@H]1c2c(oc(CCc3ccccc3)cc2=O)[C@H]2O[C@H]2[C@H]1O)[C@@H]1CC[C@@]2(O)CCCC[C@@]2(C)C1`, which IC50 [4] is on record?
Answer: Its IC50 is 10.9 µM.

Question: And the IC50 [5]?
Answer: The IC50 was 10.9 µM.

Question: And the IC50 [6]?
Answer: Its IC50 is 10.9 µM.

Question: What about the IC50 [7] of the same molecule?
Answer: The IC50 was 10.9 µM.

Question: Which IC50 [1] does the source give for `O=c1cc(CCc2ccccc2)oc2c(O)cc(O)cc12` here?
Answer: The IC50 was 220 µM.

Question: What does the source list for `C=C(CO[C@H]1c2c(oc(CCc3ccc(OC)cc3)cc2=O)[C@H]2O[C@H]2[C@H]1O)[C@@H]1CC[C@]2(C)CCC[C@H](C)[C@@]2(C)C1`?
Answer: IC50 [4]: 10.9 µM; IC50 [5]: 10.9 µM; IC50 [6]: 10.9 µM; IC50 [7]: 10.9 µM
